Source: publication PMC10402871, “Design, synthesis and antiproliferative screening of newly synthesized acrylate derivatives as potential anticancer agents” (RSC Advances, 2023)
Several values for one entry are separate records, joined by “and”; a condition that tells them apart may be missing. Identical values can stand only once.

Legend:
[1] = system: MCF-7 breast carcinoma cell line; test: MTT cytotoxic activity against MCF-7 breast carcinoma cell line; assay type: cell-based; settings: Homo sapiens, MCF7; MTT assay, MCF-7 cells, 24 h incubation
Experimental: Cytotoxic activity of the synthesized acrylate derivatives 5a–6i was evaluated against the MCF-7 breast carcinoma cell line using the MTT colorimetric assay. CA-4 was included as a positive control. The results were summarized as IC50 values in Table 1.
Antiproliferative activity of the constructed acrylate molecules 5a–6i was determined on MCF-7 cell line as reported previously.[38] See ESI Appendix A. ^† […]
(§1) S4.2.1. Cytotoxic activity evaluation
To measure the cytotoxic actvity of the synthesized acrylate derivatives 5a,b and 6a-i in breast cancer (MCF-7) cell line. Cell viability assay was assessed using MTT assay method. Cells at density of 1 x 104 were seeded in a 96-well plate at 37 °C for 24 h under 5% CO2. After incubation, the cells were treated with different concentrations of the test acrylate derivatives 5a-6i and incubated for 24 h, then 20 µl of MTT solution at 5 mg/mL was applied and incubated for 4 h at 37 °C. Dimethyl sulphoxide (DMSO) in volume of 100 µl was added to each well to dissolve the purple formazan that had formed. The color intensity of the formazan product, which represents the growth condition of the cells, is quantified by using an ELISA plate reader (EXL 800, USA) at 570 nm absorbance. The experimental conditions were carried out with at least three replicates, and the experiments were repeated at least three times. […]

MCF-10A = test: MTT cytotoxic activity against MCF-10A cells; assay type: cell-based; settings: Homo sapiens, MTT assay
β-tubulin = target: T1, β-tubulin (Homo sapiens, UniProt P07437); test: β-tubulin polymerization inhibition in MCF-7 cells (Human Beta-tubulin SimpleStep ELISA kit); assay type: cell-based; settings: 48 h; for β-tubulin polymerization inhibition percentage: at IC50 concentration
T1 construct: utilizing MCF-7 breast carcinoma cells; endogenous in cells; host or cells: MCF-7 breast carcinoma cells
T1 sequence (P07437 whole entry): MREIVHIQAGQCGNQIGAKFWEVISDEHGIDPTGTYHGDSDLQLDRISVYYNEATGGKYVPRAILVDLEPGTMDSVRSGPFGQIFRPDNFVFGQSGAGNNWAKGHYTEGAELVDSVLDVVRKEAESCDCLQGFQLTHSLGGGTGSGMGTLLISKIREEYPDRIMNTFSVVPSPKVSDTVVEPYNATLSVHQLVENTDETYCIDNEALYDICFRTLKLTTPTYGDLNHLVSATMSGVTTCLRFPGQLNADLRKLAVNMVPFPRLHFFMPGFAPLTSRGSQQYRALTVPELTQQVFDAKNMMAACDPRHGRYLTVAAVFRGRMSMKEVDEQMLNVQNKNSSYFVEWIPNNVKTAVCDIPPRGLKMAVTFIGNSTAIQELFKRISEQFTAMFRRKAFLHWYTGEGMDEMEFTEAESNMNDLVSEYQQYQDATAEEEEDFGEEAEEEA
T1 sequence (P68363 whole entry partner): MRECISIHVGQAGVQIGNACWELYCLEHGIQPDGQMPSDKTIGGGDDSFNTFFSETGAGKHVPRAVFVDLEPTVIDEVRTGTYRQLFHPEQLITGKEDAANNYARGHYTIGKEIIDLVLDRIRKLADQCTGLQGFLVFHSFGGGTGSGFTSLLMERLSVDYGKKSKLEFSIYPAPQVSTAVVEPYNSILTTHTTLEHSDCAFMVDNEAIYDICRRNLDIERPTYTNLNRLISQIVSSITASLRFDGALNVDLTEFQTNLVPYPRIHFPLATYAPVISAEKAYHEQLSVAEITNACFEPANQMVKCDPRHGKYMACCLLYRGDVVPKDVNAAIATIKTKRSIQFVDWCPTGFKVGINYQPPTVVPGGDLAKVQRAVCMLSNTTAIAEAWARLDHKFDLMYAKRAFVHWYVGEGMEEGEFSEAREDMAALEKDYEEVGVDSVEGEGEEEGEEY
Source text: The disruption of the cellular microtubule structure and, more importantly, microtubule function that result from inhibiting β-tubulin polymerization leads to the triggering of cellular apoptosis.[30,31] Inhibition of tubulin polymerization has been identified as a possible therapeutic target for the creation of new cancer therapies.[32]
as §1
(§2) To measure the cytotoxic actvity of the synthesized acrylate derivatives 5a,b and 6a-i in breast cancer (MCF-7) cell line. Cell viability assay was assessed using MTT assay method. Cells at density of 1 x 104 were seeded in a 96-well plate at 37 °C for 24 h under 5% CO2. After incubation, the cells were treated with different concentrations […]
(§3) solution at 5 mg/mL was applied and incubated for 4 h at 37 °C. Dimethyl sulphoxide (DMSO) in volume of 100 µl was added to each well to dissolve the purple formazan that had formed. The color intensity of the formazan product, which represents the growth condition of the cells, is quantified by using an ELISA plate reader (EXL 800, USA) at 570 nm absorbance. The experimental conditions were carried out with at least three replicates, and the experiments were repeated at least three times.
(§4) S4.2.2. Tubulin polymerization Assay

[2] = system: MCF-7 breast carcinoma cells; test: Flow cytometric cell cycle analysis of MCF-7 cells; assay type: cell-based; settings: 2.57 μM, 48 h
Experimental: The MCF-7 cell line was used for cell cycle analysis. Assay was carried out as reported previously.[39] See ESI Appendix A. ^† […]
as §1
To measure the cytotoxic actvity of the synthesized acrylate derivatives 5a,b and 6a-i in breast cancer (MCF-7) cell line. Cell viability assay was assessed using MTT assay method. Cells at density of 1 x 104 were seeded in a 96-well plate at 37 °C for 24 h under 5% CO2. After incubation, the cells were treated with different concentrations of the test acrylate derivatives 5a-6i and incubated for 24 h, then 20 µl of MTT solution at 5 mg/mL was applied and incubated for 4 h at 37 °C. Dimethyl sulphoxide (DMSO) in volume of 100 µl was added to each well to dissolve the purple formazan that had formed. The color intensity of the formazan product, which represents the growth condition of the cells, is quantified by using an ELISA plate reader (EXL 800, USA) at 570 nm absorbance. The experimental conditions were carried out with at least three replicates, and the experiments were repeated at least three times.
as §4
Compound 6e and CA-4 were evaluated for their tubulin inhibitory activity according to manufacturer’s instructions using # abcam Human Beta-tubulin simplestep ELISA […]
(§5) S4.2.3. Cell cycle analysis of compound 6e
Cell cycle analysis in MCF-7 cells was investigated using fluorescent Annexin V-FITC/ PI detection kit (BioVision EZCellTM Cell Cycle Analysis Kit Catalog #K920) by flow cytometry assay. MCF-7 cells at a density of 2 × 10^5 per well were harvested and washed twice in PBS. After that, the cells were incubated at 37 °C and 5% CO2.
The medium was incubated with the tested compound 6e at ita IC50 (µM) for 48 h, washed twice in PBS, fixed with 70% ethanol, rinsed again with PBS. Afterward, medium was stained with DNA fluorochrome PI for 15 min at 37 °C. The samples were immediately analyzed using Facs Calibur flow cytometer (Becton and Dickinson, Heidelberg, Germany).
S4.2.4. Apoptosis assay for compound 6e […]

[3] = system: MCF-7 breast carcinoma cells; test: Annexin V-FITC/PI apoptosis assay in MCF-7 cells; assay type: cell-based; settings: 2.57 μM, 48 h
Experimental: as §1, §2, §3
S4.2.2. Tubulin polymerization Assay […]
to manufacturer’s instructions using # abcam Human Beta-tubulin simplestep ELISA […]
as §5
Cell cycle analysis in MCF-7 cells was investigated using fluorescent Annexin V-FITC/ PI detection kit (BioVision EZCellTM Cell Cycle Analysis Kit Catalog #K920) by flow cytometry assay. MCF-7 cells at a density of 2 × 10^5 per well were harvested and washed twice in PBS. […]
immediately analyzed using FACS Calibur flow cytometer (Becton and Dickinson, […]

p53 = test: qRT-PCR gene expression of p53 in MCF-7 cells; assay type: cell-based; settings: 2.57 μM, 48 h
Source text: (§6) p53, Bax and Bcl-2 play a key role in controlling intrinsic mitochondrial cellular death.[36] […] During the apoptotic process, these mediators have opposing effects. p53 and Bax have proapoptotic impacts, while Bcl-2 has anti-apoptotic effects. […] This assay utilized the quantitative real time reverse transcriptase PCR (qRT-PCR) assay. […] On the other hand, compound 6e decreased the level of anti-apoptotic gene Bcl-2 level by 0.38-fold less than untreated cells.
(§7) The MCF-7 cell line was used for measurement of the expression levels of Apoptotic markers. […]
(§8) S4.2.5. qRT-PCR measurements of p53, Bax and Bcl2 for compound 6e
(§9) Real-time PCR for p53, BAX and Bcl-2 genes expression was done using commercial Qiagen RNA extraction/ BioRad SYBER green PCR master mix according manufacturer's instructions. Briefly, 2 µl of cDNA template, 10 pMol of each forward and reverse primer, 10 µl of 2X Master Mix and to 20 µl total reaction mixture volume by nuclease free water and then was introduced to thermal cycler instrument (Thermo Scientific, USA). The cycling parameters for the PCR amplification were achieved by initial denaturation at 95 °C for 3 minutes followed by 40 cycles of 94 °C for 15 seconds and annealing/extension step at 60 °C for 1 min. Relative quantification of target genes was run on Rotor-Gene 6000 Series Software 1.7 (Build […]
(§10) Table 1: The primer sequences for Real Time PCR assay

Bax = test: qRT-PCR gene expression of Bax in MCF-7 cells; assay type: cell-based; settings: 2.57 μM, 48 h
Source text: as §6, §7, §8, §9, §10

Bcl-2 = test: qRT-PCR gene expression of Bcl-2 in MCF-7 cells; assay type: cell-based; settings: 2.57 μM, 48 h
Source text: as §6, §7, §8, §9, §10

Bax/Bcl-2 = Bax/Bcl-2 ratio from qRT-PCR in MCF-7 cells; assay type: cell-based; settings: 2.57 μM, 48 h
Source text: as §6, §7, §8, §9, §10

Row | SMILES | melting point [°C] | IC50 [1] [µM] | other results
1 | COC(=O)/C(=C/c1ccc(OC)c(OC)c1OC)NC(=O)c1ccc(OC)c(OC)c1 [6a, (Z)-Methyl 2-(3,4-dimethoxybenzamido)-3-(2,3,4-trimethoxyphenyl)acrylate] | 177 to 179 | 6.74 ± 0.78 | 
2 | COC(=O)/C(=C/c1ccc(OC)c(OC)c1OC)NC(=O)c1cc(OC)c(OC)c(OC)c1 [6e, (Z)-Methyl 2-(3,4,5-trimethoxybenzamido)-3-(2,3,4-trimethoxyphenyl)acrylate] |  | 2.57 ± 0.16 | IC50 (MCF-10A): 19.1 ± 0.31 µM; fold decrease in the level of β-tubulin polymerization compared to untreated control cells (β-tubulin; 2.57 μM): 5.73 fold; β-tubulin polymerization inhibition percentage (β-tubulin): 81.16%; cell population in G2/M phase ([2]; control 8.20%): 29.96%; cell population in S phase ([2]; control 26.88%): 22.06%; cell population in G1 phase ([2]; control 54.92%): 47.98%; late stage apoptotic cells ([3]; control 0.24%): 23.28%; early stage apoptotic cells ([3]; control 0.38%): 14.55%; p53 gene expression level, fold relative to untreated control cells (p53): 6.18 fold; Bax gene expression level, fold relative to untreated control cells (Bax): 3.99 fold; Bcl-2 gene expression level, fold relative to untreated cells (decrease) (Bcl-2): 0.38 fold; increase of the ratio of Bax/Bcl-2 compared to untreated cells (Bax/Bcl-2): 10.5 fold
3 | COc1cc(C(=O)N/C(=C\c2ccc(OC)c(OC)c2OC)C(=O)O)cc(OC)c1OC [5b, (Z)-2-(3,4,5-Trimethoxybenzamido)-3-(2,3,4-trimethoxyphenyl)acrylic acid] | 217 to 219 | 5.12 ± 0.32 | 
4 | CCCOC(=O)/C(=C/c1ccc(OC)c(OC)c1OC)NC(=O)c1ccc(OC)c(OC)c1 [6c, (Z)-Propyl 2-(3,4-dimethoxybenzamido)-3-(2,3,4-trimethoxyphenyl)acrylate] | 119 to 121 | 20.3 ± 0.44 | 
5 | COc1ccc(C(=O)N/C(=C\c2ccc(OC)c(OC)c2OC)C(=O)O)cc1OC [5a, (Z)-2-(3,4-Dimethoxybenzamido)-3-(2,3,4-trimethoxyphenyl)acrylic acid] | 201 to 203 | 9.31 ± 0.35 | 
6 | CCOC(=O)/C(=C/c1ccc(OC)c(OC)c1OC)NC(=O)c1ccc(OC)c(OC)c1 [6b, (Z)-Ethyl 2-(3,4-dimethoxybenzamido)-3-(2,3,4-trimethoxyphenyl)acrylate] | 154 to 156 | 17.1 ± 0.49 | 
7 | COc1ccc(/C=C\c2cc(OC)c(OC)c(OC)c2)cc1O [CA-4, combretastatin A-4, reference compound] |  | 1.25 ± 0.08 | IC50 (MCF-10A): 13.2 ± 0.19 µM; β-tubulin polymerization inhibition percentage (β-tubulin): 89.17% and 82.82%
8 | CCCCOC(=O)/C(=C/c1ccc(OC)c(OC)c1OC)NC(=O)c1ccc(OC)c(OC)c1 [6d, (Z)-Butyl 2-(3,4-dimethoxybenzamido)-3-(2,3,4-trimethoxyphenyl)acrylate] | 132 to 134 | 42.1 ± 0.96 | 

Now from value to compound, other results behind:

Row | melting point [°C] | SMILES | IC50 [1] [µM] | other results
9 | 118 to 120 | CCCCOC(=O)C(=Cc1ccc(OC)c(OC)c1OC)NC(=O)c1cc(OC)c(OC)c(OC)c1 [6i, Butyl 2-(3,4,5-trimethoxybenzamido)-3-(2,3,4-trimethoxyphenyl)acrylate] | 33 ± 1.03 | 
10 | 127 to 129 | CCOC(=O)/C(=C/c1ccc(OC)c(OC)c1OC)NC(=O)c1cc(OC)c(OC)c(OC)c1 [6f, (Z)-Ethyl 2-(3,4,5-trimethoxybenzamido)-3-(2,3,4-trimethoxyphenyl)acrylate] | 3.26 ± 0.21 | 
11 | 105 to 107 | COc1cc(C(=O)N/C(=C\c2ccc(OC)c(OC)c2OC)C(=O)OC(C)C)cc(OC)c1OC [6h, (Z)-Isopropyl 2-(3,4,5-trimethoxybenzamido)-3-(2,3,4-trimethoxyphenyl)acrylate] | 7.08 ± 0.29 | 
12 | 111 to 113 | CCCOC(=O)/C(=C/c1ccc(OC)c(OC)c1OC)NC(=O)c1cc(OC)c(OC)c(OC)c1 [6g, (Z)-Propyl 2-(3,4,5-trimethoxybenzamido)-3-(2,3,4-trimethoxyphenyl)acrylate] | 11.3 ± 0.75 | 
